Assays:
SYK kinase = molecular target: T1, SYK kinase (Homo sapiens, UniProt P43405); experiment: SYK Assay (OMNIA KINASE ASSAY, SOX peptide fluorescence); format: biochemical; conditions: apparent Ki calculated from the IC50 using the Cheng-Prusoff equation; 1 mM ATP, 30° C.; read-out: SYK Activities: Ki
T1 construct: purchased Invitrogen, Carlsbad
Procedure, shortened: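 Apparent Ki values are derived by Cheng-Prusoff from IC50s of sigmoidal fits of reaction rate against compound concentration. Rates come from chelation-enhanced SOX fluorescence (λex 360/λem 485 nm, read every 30 s over 30 min) as the kinase phosphorylates 10 µM Omnia Tyr 7 peptide at 30 °C, with 1 mM ATP and 0.2 mM DTT.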

MYLK = MYLK (Homo sapiens, UniProt Q15746); experiment: MYLK Assay (LanthaScreen Eu Kinase Binding Assay); conditions: 5 nM MYLK, 30 nM tracer 236, RT 1 h; read-out: MYLK Activities: IC50
Method: In the assay LanthaScreen™ Eu Kinase Binding Assay by Invitrogen Corporation (Carlsbad) the effect of invention of a compound on the phosphorylation is determined by measurement of fluorescence intensity emission ratio based on the binding and displacement of a proprietary, Alexa Fluor® 647-labeled, ATP-competitive kinase inhibitor scaffold (kinase tracer) to the kinase of interest as described above.
To the wells of an 384 well small volume plate (Greiner, Frickenhausen) are added (i) the compound under test in 5% is DMSO/distilled water (5 μl), (ii) 5 μl of the kinase antibody mixture resulting in a final concentration 5 nM MYLK, 2 nM EU-Anti-GST antibody in 1× kinase buffer A. The reaction was started with addition of (iii) 5 μl resulting in a final concentration of 30 nM tracer 236. The assay plate was incubated at RT for 1 h and fluorescence intensity readings were collected using a TECAN M1000 at two wavelengths of λex 340/λem 615 nm and λex 340/λem 665 nm with a delay time of 100 μs and an integration time of 200 μs after 60 minutes. The emission ratio was calculated by division of the acceptor/tracer emission ([…]) by the antibody/donor emission ([…]). The inhibitor concentration was plotted versus the emission ratio to determine the IC50 using XLFit 5.0 (IDBS, Guildford) to fit to a sigmoidal dose response curve with a variable slope.

LRRK2 = LRRK2 (Homo sapiens, UniProt Q5S007); experiment: LRRK2-LRRK2 G2019S-Assay (LanthaScreen Eu Kinase Binding Assay); conditions: 5 nM LRRK2 or their mutants, 10 nM tracer 236, RT 1 h; read-out: LRRK2 Activities: IC50
Procedure, shortened: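 Kinase (wild type or mutant, 5 nM) mixed with Eu-anti-GST antibody (2 nM), then 10 nM Alexa Fluor 647 tracer 236 added. After 1 h at room temperature, the acceptor/donor (665/615 nm) FRET ratio was measured. IC50 was fitted from concentration–ratio curves.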

Chain of MYLK (Q15746 whole entry): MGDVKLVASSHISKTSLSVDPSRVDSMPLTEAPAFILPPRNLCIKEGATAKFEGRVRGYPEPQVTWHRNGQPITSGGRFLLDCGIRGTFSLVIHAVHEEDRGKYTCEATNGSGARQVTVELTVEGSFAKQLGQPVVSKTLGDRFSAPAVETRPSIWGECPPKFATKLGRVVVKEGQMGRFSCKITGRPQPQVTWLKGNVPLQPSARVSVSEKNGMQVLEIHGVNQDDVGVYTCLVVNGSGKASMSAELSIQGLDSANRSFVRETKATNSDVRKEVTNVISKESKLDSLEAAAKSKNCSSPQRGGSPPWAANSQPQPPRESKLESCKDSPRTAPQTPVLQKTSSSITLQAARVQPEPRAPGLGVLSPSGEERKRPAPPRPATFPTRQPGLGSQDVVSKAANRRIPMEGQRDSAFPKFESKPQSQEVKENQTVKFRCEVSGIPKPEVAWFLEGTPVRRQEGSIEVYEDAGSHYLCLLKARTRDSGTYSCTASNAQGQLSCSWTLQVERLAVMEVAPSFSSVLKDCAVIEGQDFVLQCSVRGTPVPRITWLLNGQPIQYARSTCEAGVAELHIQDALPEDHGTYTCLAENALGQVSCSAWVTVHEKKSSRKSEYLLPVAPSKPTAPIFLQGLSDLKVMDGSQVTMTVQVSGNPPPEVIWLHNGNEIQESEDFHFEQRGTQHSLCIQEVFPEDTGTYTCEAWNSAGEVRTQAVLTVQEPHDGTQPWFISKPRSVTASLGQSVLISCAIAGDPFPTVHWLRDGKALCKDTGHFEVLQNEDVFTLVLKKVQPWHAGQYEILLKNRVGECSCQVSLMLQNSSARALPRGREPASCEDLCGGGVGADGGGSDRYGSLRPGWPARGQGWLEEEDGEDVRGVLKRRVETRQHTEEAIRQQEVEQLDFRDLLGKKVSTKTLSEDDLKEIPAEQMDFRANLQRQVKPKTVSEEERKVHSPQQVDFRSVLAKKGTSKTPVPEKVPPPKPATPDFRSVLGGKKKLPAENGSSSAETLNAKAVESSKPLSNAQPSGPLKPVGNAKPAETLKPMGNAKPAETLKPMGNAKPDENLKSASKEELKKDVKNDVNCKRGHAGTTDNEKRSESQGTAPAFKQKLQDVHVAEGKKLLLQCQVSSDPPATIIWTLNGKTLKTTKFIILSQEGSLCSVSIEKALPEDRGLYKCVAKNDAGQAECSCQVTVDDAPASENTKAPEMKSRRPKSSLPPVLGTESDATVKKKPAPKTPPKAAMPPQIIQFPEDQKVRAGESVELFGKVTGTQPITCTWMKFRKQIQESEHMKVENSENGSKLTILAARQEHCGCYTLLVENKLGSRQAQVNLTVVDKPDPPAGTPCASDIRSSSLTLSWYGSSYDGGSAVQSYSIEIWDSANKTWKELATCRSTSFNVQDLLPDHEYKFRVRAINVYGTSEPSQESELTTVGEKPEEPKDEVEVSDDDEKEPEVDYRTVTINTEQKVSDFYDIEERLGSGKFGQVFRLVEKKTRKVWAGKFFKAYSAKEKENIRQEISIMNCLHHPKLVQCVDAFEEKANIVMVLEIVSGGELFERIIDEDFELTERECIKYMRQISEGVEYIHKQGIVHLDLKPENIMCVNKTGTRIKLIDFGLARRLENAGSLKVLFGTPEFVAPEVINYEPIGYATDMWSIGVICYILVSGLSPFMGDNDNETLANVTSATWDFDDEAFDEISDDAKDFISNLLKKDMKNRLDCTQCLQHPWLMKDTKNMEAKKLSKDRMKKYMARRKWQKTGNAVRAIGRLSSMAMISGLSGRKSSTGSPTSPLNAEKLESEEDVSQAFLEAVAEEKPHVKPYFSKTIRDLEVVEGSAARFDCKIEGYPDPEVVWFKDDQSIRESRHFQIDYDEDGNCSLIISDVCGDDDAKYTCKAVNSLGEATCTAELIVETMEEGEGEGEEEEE
Chain of LRRK2 (Q5S007 970-2527 limits assumed): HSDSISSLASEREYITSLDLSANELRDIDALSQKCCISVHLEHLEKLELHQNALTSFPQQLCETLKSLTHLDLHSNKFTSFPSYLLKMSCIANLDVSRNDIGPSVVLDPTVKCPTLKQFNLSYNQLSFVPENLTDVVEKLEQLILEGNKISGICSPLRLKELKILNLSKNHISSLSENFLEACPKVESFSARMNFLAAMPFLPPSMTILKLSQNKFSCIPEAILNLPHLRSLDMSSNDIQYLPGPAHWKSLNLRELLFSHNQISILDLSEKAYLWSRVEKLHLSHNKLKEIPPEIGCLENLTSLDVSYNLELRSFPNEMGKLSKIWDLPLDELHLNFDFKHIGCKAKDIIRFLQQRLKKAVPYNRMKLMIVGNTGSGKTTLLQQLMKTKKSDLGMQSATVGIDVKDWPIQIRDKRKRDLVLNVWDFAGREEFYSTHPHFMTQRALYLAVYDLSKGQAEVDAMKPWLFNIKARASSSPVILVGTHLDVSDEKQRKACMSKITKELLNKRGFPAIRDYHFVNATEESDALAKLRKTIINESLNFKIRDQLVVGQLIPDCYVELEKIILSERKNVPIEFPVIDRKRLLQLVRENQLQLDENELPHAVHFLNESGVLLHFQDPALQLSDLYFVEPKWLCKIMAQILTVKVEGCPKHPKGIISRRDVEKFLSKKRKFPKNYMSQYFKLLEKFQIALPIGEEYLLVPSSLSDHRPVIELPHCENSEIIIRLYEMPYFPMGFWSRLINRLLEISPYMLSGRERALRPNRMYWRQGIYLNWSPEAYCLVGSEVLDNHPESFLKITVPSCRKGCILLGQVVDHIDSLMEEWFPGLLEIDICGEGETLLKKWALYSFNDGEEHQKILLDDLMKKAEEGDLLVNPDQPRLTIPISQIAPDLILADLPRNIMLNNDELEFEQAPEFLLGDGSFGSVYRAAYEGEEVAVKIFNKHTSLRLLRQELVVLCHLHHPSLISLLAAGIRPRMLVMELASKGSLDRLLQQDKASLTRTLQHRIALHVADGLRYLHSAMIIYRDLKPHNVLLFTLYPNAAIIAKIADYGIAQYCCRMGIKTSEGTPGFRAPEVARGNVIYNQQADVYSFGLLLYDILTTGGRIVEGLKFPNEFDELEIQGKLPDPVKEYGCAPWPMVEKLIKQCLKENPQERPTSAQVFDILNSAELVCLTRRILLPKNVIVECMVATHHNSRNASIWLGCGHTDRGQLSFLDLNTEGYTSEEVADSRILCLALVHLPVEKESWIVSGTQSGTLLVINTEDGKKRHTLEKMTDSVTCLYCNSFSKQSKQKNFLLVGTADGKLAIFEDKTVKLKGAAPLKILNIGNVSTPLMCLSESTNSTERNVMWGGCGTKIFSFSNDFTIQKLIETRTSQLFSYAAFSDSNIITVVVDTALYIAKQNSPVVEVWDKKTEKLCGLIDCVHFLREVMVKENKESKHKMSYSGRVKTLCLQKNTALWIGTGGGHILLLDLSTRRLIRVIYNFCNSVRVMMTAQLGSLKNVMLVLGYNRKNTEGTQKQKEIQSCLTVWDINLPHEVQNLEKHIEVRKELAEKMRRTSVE

c1cc(N2CCOCC2)ccc1Nc1nc(-c2ccc3cn[nH]c3c2)nc2cn[nH]c12 [Example #247, 5-(1H-indazol-6-yl)-N-(4-morpholinophenyl)-1H-pyrazolo[4,3-d]pyrimidin-7-amine]
Ki (SYK kinase): < 10 nM | IC50 (MYLK): < 5 µM | IC50 (LRRK2): < 10 nM

CN(C)Cc1ccc(Nc2nc(-c3ccccc3)nc3cn[nH]c23)cc1 [Example #120, N-(4-((dimethylamino)methyl)phenyl)-5-phenyl-1H-pyrazolo[4,3-d]pyrimidin-7-amine]
Ki (SYK kinase): 10 to 100 nM | IC50 (MYLK): < 5 µM | IC50 (LRRK2): 100 to 1000 nM

CSc1cccc(-c2nc(Nc3ccc(N4CCN(C)CC4)cc3)c3[nH]ncc3n2)c1 [Example #225, N-(4-(4-methylpiperazin-1-yl)phenyl)-5-(3-(methylthio)phenyl)-1H-pyrazolo[4,3-d]pyrimidin-7-amine]
Ki (SYK kinase): < 10 nM | IC50 (MYLK): < 5 µM | IC50 (LRRK2): 100 to 1000 nM

CC(=O)N1CCN(c2ccc(Nc3nc(-c4ccsc4)nc4cn[nH]c34)cc2)CC1 [Example #144, 1-(4-(4-((5-(thiophen-3-yl)-1H-pyrazolo[4,3-d]pyrimidin-7-yl)amino)phenyl)piperazin-1-yl)ethan-1-one]
Ki (SYK kinase): < 10 nM | IC50 (MYLK): < 5 µM | IC50 (LRRK2): < 10 nM

CC(C)(C)N1CCN(c2ccc(Nc3nc(-c4ccsc4)nc4cn[nH]c34)cc2)CC1 [Example #161, N-(4-(4-(tert-butyl)piperazin-1-yl)phenyl)-5-(thiophen-3-yl)-1H-pyrazolo[4,3-d]pyrimidin-7-amine]
Ki (SYK kinase): < 10 nM | IC50 (MYLK): < 5 µM | IC50 (LRRK2): 10 to 100 nM

NC(=O)c1cccc(Nc2nc(-c3ccccc3)nc3cn[nH]c23)c1 [Example #5, 3-((5-phenyl-1H-pyrazolo[4,3-d]pyrimidin-7-yl)amino)benzamide]
Ki (SYK kinase): < 10 nM | IC50 (MYLK): < 5 µM | IC50 (LRRK2): 100 to 1000 nM

CC(C)(C)N1CCN(c2ccc(Nc3nc(-c4cccs4)nc4cn[nH]c34)cc2)CC1 [Example #163, N-(4-(4-(tert-butyl)piperazin-1-yl)phenyl)-5-(thiophen-2-yl)-1H-pyrazolo[4,3-d]pyrimidin-7-amine]
Ki (SYK kinase): < 10 nM | IC50 (MYLK): < 5 µM | IC50 (LRRK2): 100 to 1000 nM

COc1ccc(-c2nc(Nc3ccc(N4CCN(C)CC4)cc3)c3[nH]ncc3n2)cc1OC [Example #34, 5-(3,4-dimethoxyphenyl)-N-(4-(4-methylpiperazin-1-yl)phenyl)-1H-pyrazolo[4,3-d]pyrimidin-7-amine]
Ki (SYK kinase): < 10 nM | IC50 (MYLK): < 5 µM | IC50 (LRRK2): 100 to 1000 nM

c1csc(-c2nc(Nc3ccc(N4CCN(C5CC5)CC4)cc3)c3[nH]ncc3n2)c1 [Example #293, N-(4-(4-cyclopropylpiperazin-1-yl)phenyl)-5-(thiophen-2-yl)-1H-pyrazolo[4,3-d]pyrimidin-7-amine]
Ki (SYK kinase): < 10 nM | IC50 (MYLK): < 5 µM | IC50 (LRRK2): 100 to 1000 nM

CN1CCN(c2ccc(Nc3nc(-c4cccc(-c5cccnc5)c4)nc4cn[nH]c34)cc2)CC1 [Example #99, N-(4-(4-methylpiperazin-1-yl)phenyl)-5-(3-(pyridin-3-yl)phenyl)-1H-pyrazolo[4,3-d]pyrimidin-7-amine]
Ki (SYK kinase): < 10 nM | IC50 (MYLK): < 5 µM | IC50 (LRRK2): 100 to 1000 nM

CN1CCN(C2CCN(c3ccc(Nc4nc(-c5cccs5)nc5cn[nH]c45)cc3)CC2)CC1 [Example #290, N-(4-(4-(4-methylpiperazin-1-yl)piperidin-1-yl)phenyl)-5-(thiophen-2-yl)-1H-pyrazolo[4,3-d]pyrimidin-7-amine]
Ki (SYK kinase): < 10 nM | IC50 (MYLK): < 5 µM | IC50 (LRRK2): 100 to 1000 nM

COc1cccc(-c2nc(Nc3ccc(N4CCN(C)CC4)cc3)c3[nH]ncc3n2)c1 [Example #62, 5-(3-methoxyphenyl)-N-(4-(4-methylpiperazin-1-yl)phenyl)-1H-pyrazolo[4,3-d]pyrimidin-7-amine]
Ki (SYK kinase): < 10 nM | IC50 (MYLK): < 5 µM | IC50 (LRRK2): 10 to 100 nM

CN1CCN(C(=O)c2ccc(Nc3nc(-c4ccsc4)nc4cn[nH]c34)cc2)CC1 [Example #147, (4-methylpiperazin-1-yl)(4-((5-(thiophen-3-yl)-1H-pyrazolo[4,3-d]pyrimidin-7-yl)amino)phenyl)methanone]
Ki (SYK kinase): 10 to 100 nM | IC50 (MYLK): < 5 µM | IC50 (LRRK2): 10 to 100 nM

CS(=O)(=O)Nc1cccc(-c2nc(Nc3ccc(N4CCNCC4)cc3)c3[nH]ncc3n2)c1 [Example #188, N-(3-(7-((4-(piperazin-1-yl)phenyl)amino)-1H-pyrazolo[4,3-d]pyrimidin-5-yl)phenyl)methanesulfonamide]
Ki (SYK kinase): < 10 nM | IC50 (MYLK): < 5 µM | IC50 (LRRK2): 100 to 1000 nM

CN1CCN(C2CCN(c3ccc(Nc4nc(-c5c(F)cccc5F)nc5cn[nH]c45)cc3)CC2)CC1 [Example #284, 5-(2,6-difluorophenyl)-N-(4-(4-(4-methylpiperazin-1-yl)piperidin-1-yl)phenyl)-1H-pyrazolo[4,3-d]pyrimidin-7-amine]
Ki (SYK kinase): 10 to 100 nM | IC50 (MYLK): < 5 µM | IC50 (LRRK2): 100 to 1000 nM

CN1CCN(c2ccc(Nc3nc(-c4ccccc4F)nc4cn[nH]c34)cc2)CC1 [Example #275, 5-(2-fluorophenyl)-N-(4-(4-methylpiperazin-1-yl)phenyl)-1H-pyrazolo[4,3-d]pyrimidin-7-amine]
Ki (SYK kinase): < 10 nM | IC50 (MYLK): < 5 µM | IC50 (LRRK2): 100 to 1000 nM

COc1cc(Nc2nc(-c3cccc(S(N)(=O)=O)c3)nc3cn[nH]c23)ccc1N1CCOCC1 [Example #240, 3-(7-((3-methoxy-4-morpholinophenyl)amino)-1H-pyrazolo[4,3-d]pyrimidin-5-yl)benzenesulfonamide]
Ki (SYK kinase): < 10 nM | IC50 (MYLK): < 5 µM | IC50 (LRRK2): 100 to 1000 nM

c1csc(-c2nc(Nc3ccc(CN4CCOCC4)cc3)c3[nH]ncc3n2)c1 [Example #295, N-(4-(morpholinomethyl)phenyl)-5-(thiophen-2-yl)-1H-pyrazolo[4,3-d]pyrimidin-7-amine]
Ki (SYK kinase): < 10 nM | IC50 (MYLK): < 5 µM | IC50 (LRRK2): 100 to 1000 nM

C[S+]([O-])c1cccc(Nc2nc(-c3cccs3)nc3cn[nH]c23)c1 (stereo not drawn) [Example #268, N-(3-(methylsulfinyl)phenyl)-5-(thiophen-2-yl)-1H-pyrazolo[4,3-d]pyrimidin-7-amine]
Ki (SYK kinase): 10 to 100 nM | IC50 (MYLK): < 5 µM | IC50 (LRRK2): 100 to 1000 nM

Nc1cccc(Nc2nc(-c3ccsc3)nc3cn[nH]c23)c1 [Example #117, N1-(5-(thiophen-3-yl)-1H-pyrazolo[4,3-d]pyrimidin-7-yl)benzene-1,3-diamine]
Ki (SYK kinase): < 10 nM | IC50 (MYLK): < 5 µM | IC50 (LRRK2): 10 to 100 nM

CN1CCN(c2ccc(Nc3nc(-c4ccncc4)nc4cn[nH]c34)cc2)CC1 [Example #20, N-(4-(4-methylpiperazin-1-yl)phenyl)-5-(pyridin-4-yl)-1H-pyrazolo[4,3-d]pyrimidin-7-amine]
Ki (SYK kinase): < 10 nM | IC50 (MYLK): < 5 µM | IC50 (LRRK2): 100 to 1000 nM

CN1CCN(c2ccc(Nc3nc(-c4cccs4)nc4cn[nH]c34)cc2)CC1 [Example #70, N-(4-(4-methylpiperazin-1-yl)phenyl)-5-(thiophen-2-yl)-1H-pyrazolo[4,3-d]pyrimidin-7-amine]
Ki (SYK kinase): < 10 nM | IC50 (MYLK): < 5 µM | IC50 (LRRK2): 10 to 100 nM

CN1CCN(c2ccc(Nc3nc(-c4nccs4)nc4cn[nH]c34)cc2)CC1 [Example #179, N-(4-(4-methylpiperazin-1-yl)phenyl)-5-(thiazol-2-yl)-1H-pyrazolo[4,3-d]pyrimidin-7-amine]
Ki (SYK kinase): < 10 nM | IC50 (MYLK): < 5 µM | IC50 (LRRK2): 100 to 1000 nM

O=C1COc2ccc(Nc3nc(-c4ccncc4)nc4cn[nH]c34)cc2N1 [Example #21, 6-((5-(pyridin-4-yl)-1H-pyrazolo[4,3-d]pyrimidin-7-yl)amino)-2H-benzo[b][1,4]oxazin-3(4H)-one]
Ki (SYK kinase): 100 to 1000 nM | IC50 (MYLK): < 5 µM | IC50 (LRRK2): 100 to 1000 nM

CS(=O)(=O)Nc1cccc(-c2nc(Nc3ccc4c(c3)NC(=O)CC4)c3[nH]ncc3n2)c1 [Example #190, N-(3-(7-((2-oxo-1,2,3,4-tetrahydroquinolin-7-yl)amino)-1H-pyrazolo[4,3-d]pyrimidin-5-yl)phenyl)methanesulfonamide]
Ki (SYK kinase): < 10 nM | IC50 (MYLK): < 5 µM | IC50 (LRRK2): 10 to 100 nM

CN1CCN(c2ccc(Nc3nc(-c4cccc(NS(C)(=O)=O)c4)nc4cn[nH]c34)cc2)CC1 [Example #187, N-(3-(7-((4-(4-methylpiperazin-1-yl)phenyl)amino)-1H-pyrazolo[4,3-d]pyrimidin-5-yl)phenyl)methanesulfonamide]
Ki (SYK kinase): < 10 nM | IC50 (MYLK): < 5 µM | IC50 (LRRK2): 100 to 1000 nM
